Where “and” joins values, the source holds several entries; their conditions need not be identical. Identical values can stand only once. Like-named read-outs stand apart in the source and are kept apart here.
How the values were obtained:
C2C12 cells [1] = experiment: Annexin V-Fluorescein isothiocyanate binding assay (apoptosis); assay type: cell-based, Mus musculus mouse
From the text: This technique permits to determine whether a cell is at early or late apoptosis or necrotic state. In early apoptosis, Phosphatidylserine (PS) is translocated to the outer membrane allowing PS-annexin V-Fluorescein Isothiocyanate (FITC) binding. In late apoptosis, as well as in necrotic processes, cell membranes lose their integrity allowing PI to access the nucleus and bind the DNA bases. Next, by using FACS analysis one can determine PI and annexin V-FITC staining accumulation to differentiate non-apoptotic cells (PI– and annexin V–) from early apoptotic (PI− and annexin V+) and necrotic or late apoptotic (PI+) cells (Cortés et al., [2012]). The same amount of C2C12 cells mentioned for cell cycle assay was treated with PPD as previously described. Cells were then collected and resuspended in binding buffer (10 mM Hepes/NaOH, pH7.4, 140 mM NaCl, 2.5 mM CaCl2). Annexin V-FITC conjugate (1 μg/ml) was added and incubated for 30 min at room temperature in the dark. Just before FACS analysis [Bender medSystems (Innogenetics) human Annexin V-FITC Kit cat No. BMS306FI], cells were stained with 1 mg/ml PI solution. In each experiment ~20 × 10^3 cells per condition were analyzed and the experiment was performed five times.

[2] = test system: central carbon metabolic pathways of C2C12 cells; experiment: Mass isotopomer distribution analysis (MIDA) with [1,2-13C2]-glucose, GC/MS; assay type: cell-based, Mus musculus mouse
Method: To track and measure the substrate carbon flux through central carbon metabolic pathways of C2C12 cells when treated with PPD, mass isotopomer distribution analysis (MIDA), and metabolic modeling approaches were used.
(§1) Cells were cultured in DMEM (Biowithaker) °supplemented with 10% dialyzed heat-inactivated Fetal Bovine Serum (FBS), glucose (10 mM, 50% isotope enrichment [1,2-^13C2]-glucose), asparagine (20 mg/ml), penicillin (100 U/ml), and streptomycin (100 μg/ml). […] Initially each flask contained 10^6 cells and the incubation was carried out for 24 h. To separate medium and cell pellets, cells were centrifuged at the end of incubation (3000 × g, 5 min). Afterwards, pellet and medium were stored at −20°C for metabolite isolations.
• Glucose. A mixed DOWEX 50-DOWEX 1 ionic exchange column was used to corroborate that the original medium contained 50% of labeled glucose ([1,2-^13C2] D-glucose). First, 500 μl of medium and after 6 ml of milliQ water were passed through the column and were collected into a glass tube. Next, it was lyophilized for 12 h to eliminate the remaining liquid and the dried sample was stored. Finally, hydroxyl-amine in pyridine and acetic anhydride were used to derivatize glucose to its aldonitrile form. The ion cluster was set to m/z 328 (C1–C6, chemical ionization; Wamelink et al., [2008]). • Glycogen. Glycogen for biochemical and isotopomerics distribution determination was extracted as described in Burchert ([2007]), by direct digestion of sonicated extracts with amyloglucosidase. Measurement of glucose released from glycogen was done by using the isotopomer [U-13C6-1,2,3,4,5,6,6-D7]D-glucose (or [U-13C-D7]-glucose as shorter name) as recovery standard and internal standard quantification procedures. […] We monitored the ion cluster around the m/z 328 (C1–C6, chemical ionization; Wamelink et al., [2008]). • Lactate. […] Next, the m/z 328 was monitored (C1–C3, chemical ionization, Wamelink et al., [2008]). • Ribose from RNA. […]

Wistar female rats [3] = experiment: Blood packed cell volume, hemoglobin, organ weights and histology; assay type: in vivo, rat
Method: (§2) The animals were divided into groups of three rats at random. A control group receiving the vehicle and four groups receiving PPD at several concentrations 10, 20, 40, and 60 mg/kg at single dose were included (Figure 1). The compound was administered in a volume of 300 μl of 100% DMSO by gavage. Animals were evaluated based on general appearance, behavior and signs of morbidity using the Irwin test (Castagné et al., [2012]), immediately following administration, 30 min, 1, 2, 4, and 8 h after the administration (Figure 1). All of the animals were weighed just before the acclimatization period, before administration and 24, 48, and 72 h after administration. At the end of the observation period (24, 48, and 72 h after administration), all the animals were anesthetized and blood samples were collected from tail and retro orbital sinus and centrifuged at 2000 × g for 30 min at 4°C to recover the serum (Figure 1). The serum was frozen and stored at −20°C until determination of biochemical parameters such as urea, creatinin, Glucose, aspartate aminotransferase (AST), alanine aminotransferase (ALT) and creatine kinase (CK), lactate dehydrogenase (LDH), at 24, 48, and 72 h before sacrificed in a CO2 chamber and autopsied. All of the tissues were observed grossly. Ovaries, kidneys, liver, spleen, heart, and lung were weighed and the relative organ weights were calculated. Serum CK and LDH levels were measured.

C2C12 cells [4] = experiment: Cell cycle analysis (FACS, propidium iodide); assay type: cell-based, Mus musculus mouse; settings: vs untreated cells
Method: Cell cycle was evaluated by measuring FACS (fluorescence-activated cell sorter) in an Epics XL flow cytometer at 488 nm (Coulter Corporation, Hialeah, FL, USA). This technique allows for the semiquantitation of DNA in each cell and permits to separate cells in G0 or G1 phase (one copy of DNA), G2 or M phase (after DNA duplication) and S phase (the amount of DNA per cell is in an intermediate state between the two previous conditions). For these measurements, C2C12 cells were cultivated in 6 well-plates (4 × 10^5 cells/well each) with 2 ml of culture medium. After 24 h of plated, PPD corresponding to IC50 and IC80 concentrations was added and cells were incubated for 24 h, in parallel, control C2C12 cells were cultured without PPD. All experiments were performed five times with two replicates for each experiment.

C2C12 cells [5] = experiment: Cell viability assay (MTT); assay type: cell-based, Mus musculus mouse; settings: for IC50: read-out: IC50 (cell proliferation, MTT); for IC80: read-out: IC80 (cell proliferation, MTT)
Method: C2C12 cells from Mus musculus mouse were cultured in DMEM (Dulbecco's Modified Eagle's medium) with 10 mg/ml of streptomycin, 2 mM glutamine, 10,000 units/ml of penicillin and 10% heat-inactivated FCS, until subconfluence was reached. For biochemical characterization, C2C12 cells were cultured in DMEM, supplemented with 4 mM asparagine without glutamine, 10 mg/ml of streptomycin, 10,000 units/ml of penicillin and 10% heat-inactivated FCS.
The absorbance of MTT [3-(4,5-Dimethylthiazol-2-Yl)-2,5-Diphenyltetrazolium Bromide] dye staining of living cells was used to determine cell viability (Pachon et al., [2007]; Pachón et al., [2008]). Here, 3.5 × 10^3 C2C12 cells/well were cultured in 96 well-plates at different PPD concentrations (from 1 to 100 μg/ml). An ELISA plate reader (Tecan Sunrise MR20-301, TECAN, Austria) was used to determine the relative cell viability, the absorbance was determined at 550 nm. Cell survival rate relative to untreated cells after 24 h of treatment was used to estimate the concentrations that caused 50% (IC50) and 80% (IC80) of inhibition of C2C12 at that time.

Wistar female rats [6] = experiment: Toxicity after oral administration; general appearance, behavior and signs of morbidity (Irwin test); assay type: in vivo, rat; design: key to Myoglobiunuria: ++ represents the presence of myoglobinuria; settings: for Ataxic Gait / Hypotonic Gait: animals affected/group; for Hipoactivity / Piloerection: duration
Method: The study was approved by the Ethics Committee on Animal Experimentation of University of Navarra. Wistar female rats, with a body weight of 160 g ± 20% (8 weeks old), were supplied by Harlan (Harlan Laboratories, Indianapolis, IN). The animals were housed in polycarbonate cages with stainless steel covers in a room under controlled temperature conditions (22 ± 3°C), controlled relative humidity (50 ± 20%) and light (12 h light–dark cycle). Air was exchanged 15 times/h sterile food supplied by Harlan (Harlan Laboratories, Indianapolis, IN) and controlled water was available ad libitum. The rats were housed in the study room for 5 days prior to the beginning of treatment in order to allow acclimatization to the environmental conditions. Finally, three rats were randomly assigned to each studied group corresponding to different PPD doses (10, 20, 40, and 60 mg/Kg) and control (DMSO).
as §2

Wistar female rats [7] = experiment: Serum biochemical parameters (AST, ALT, CK, LDH); assay type: in vivo, rat; settings: 40 and 60 mg/kg
Method: as §2

C2C12 cells [8] = experiment: Biochemical characterization: glucose and lactate concentrations in culture medium; assay type: cell-based, Mus musculus mouse; settings: PPD at IC50, 24 h
Method: Glucose and lactate concentrations were determined from culture medium at initial and end-time points by using Cobas Mira Plus chemistry analyzer (HORIBA ABX, Montpellier, France; Cisternas et al., [2016]).
as §1

SMILES: Nc1ccc(N)cc1 [PPD, p-phenylenediamine]
- early apoptosis (C2C12 cells [1]; PPD at IC50, 24 h): 34.7%
- late apoptosis (C2C12 cells [1]; PPD at IC50, 24 h): 18.8%
- early apoptosis (C2C12 cells [1]; PPD at IC80, 24 h): 20.1%
- late apoptosis (C2C12 cells [1]; PPD at IC80, 24 h): 23.9%
- total glycogen reservoirs ([2]; 24 h, no significant differences between groups): 10,1 μg
- Glycolitic rate = [Δlactate × m2lactate]/[Δglucose × m2glucose] ([2]; PPD at IC50, 24 h, not significantly different from control): 28,8 ± 14%
- ox/non-ox ratio of pentose-phosphate pathway = m1 + m3 / (m2 + m3 + 2m4) ([2]; RNA ribose, PPD at IC50, 24 h): 2,224 ± 0,189 and 2.224 ± 0.189
- organs weight (Wistar female rats [3]; 48 and 72 h, any condition): No significant differences
- Blood packed cell volume (Wistar female rats [3]; any condition (10-60 mg/kg)): No significant differences
- hemoglobin levels (Wistar female rats [3]; any condition (10-60 mg/kg)): No significant differences
- Histological analysis of extracted organs (Wistar female rats [3]; vs controls): patterns similar to controls
- decrease in the percentage of cells in G0/G1 phases (C2C12 cells [4]; PPD at IC50, 24 h): 19%
- increase in the population in S phase (C2C12 cells [4]; PPD at IC50, 24 h): 13%
- decrease in the percentage of cells in G0/G1 phases (C2C12 cells [4]; PPD at IC80, 24 h): 32%
- increase in the population in S phase (C2C12 cells [4]; PPD at IC80, 24 h): 28%
- IC50 (C2C12 cells [5]; C2C12, 24 h): 154 µM
- IC80 (C2C12 cells [5]; C2C12, 24 h): 201 ± 8 µM
- IC50 (C2C12 cells [5]; C2C12, 48 h): 108 ± 8 µM
- IC80 (C2C12 cells [5]; C2C12, 48 h): 182 ± 12 µM
- IC50 (C2C12 cells [5]; C2C12, 72 h): 59 ± 1 µM
- IC80 (C2C12 cells [5]; C2C12, 72 h): 91 ± 7 µM
- Myoglobiunuria (Wistar female rats [6]; 10 mg/kg single oral dose): ++
- Ataxic Gait (Wistar female rats [6]; 10 mg/kg single oral dose): 0/3
- Hypotonic Gait (Wistar female rats [6]; 10 mg/kg single oral dose): 0/3
- Hipoactivity (Wistar female rats [6]; 10 mg/kg single oral dose): 10 h
- Piloerection (Wistar female rats [6]; 10 mg/kg single oral dose): 2 to 4 h
- Myoglobiunuria (Wistar female rats [6]; 20 mg/kg single oral dose): ++
- Ataxic Gait (Wistar female rats [6]; 20 mg/kg single oral dose): 0/3
- Hypotonic Gait (Wistar female rats [6]; 20 mg/kg single oral dose): 0/3
- Hipoactivity (Wistar female rats [6]; 20 mg/kg single oral dose): 10 h
- Piloerection (Wistar female rats [6]; 20 mg/kg single oral dose): 2 to 4 h
- Hipoactivity (Wistar female rats [6]; 40 mg/kg single oral dose): 24 h
- Piloerection (Wistar female rats [6]; 40 mg/kg single oral dose): Until death
- Ataxic Gait (Wistar female rats [6]; 60 mg/kg single oral dose): 0/3
- Hypotonic Gait (Wistar female rats [6]; 60 mg/kg single oral dose): 3/3
- Hipoactivity (Wistar female rats [6]; 60 mg/kg single oral dose): 48 h
- Piloerection (Wistar female rats [6]; 60 mg/kg single oral dose): Until death
- gait (Wistar female rats [6]; 60 mg/kg, after 48 h, disappeared after 72 h): ataxic gait
- signs observed at lower doses (Wistar female rats [6]; 10 and 20 mg/kg, until 10 h of treatment): depressed activity and some of they had brown color urine or myoglobinuria
- signs observed at higher doses (Wistar female rats [6]; 40 and 60 mg/kg, until 4 h of treatment): total loss of equilibrium, hypotonic gait and piloerection
- urine color (Wistar female rats [6]; after 24 h of treatment, disappears at 48 and 72 h): all animals had urine brown color but in absence of hematuria
- evolution of body weight (Wistar female rats [6]; all groups, 10-60 mg/kg, up to 72 h): normal
- persistence of muscular weakness (Wistar female rats [6]; rat, in vivo): 3 days
- ALT in serum (Wistar female rats [7]; 24, 48 and 72 h): increased
- AST in serum (Wistar female rats [7]; 24, 48 and 72 h): increased
- CK in serum (Wistar female rats [7]; 24 h): increased
- LDH in serum (Wistar female rats [7]; 24 h): increased
- glucose consumption (Δglucose) (C2C12 cells [8]): 2,42 ± 0,26 mM
- lactate production (Δlactate) (C2C12 cells [8]): 1,5 ± 0,3 mM
